In general, inhibition refers to the relative decrease from the control value, in per cent.

We go through two compounds from ChEMBL document CHEMBL3046347, “Synthesis and biological evaluation of novel curcumin analogues as anti-inflammatory, anti-cancer and anti-oxidant agents” (Med Chem Res, 2012).

Molecules are shown by their SMILES.

The test system of one series is HCT-116. The series is described as follows: Cytotoxicity against Homo sapiens (human) HCT116 cells at 700 nM after 48 hr by propidium iodide-based fluorometric assay. The class given is functional. Particulars: HCT-116, 48 h, read-out: GI.
For the next series, the system named is ACHN. The series is described as follows: Cytotoxicity against Homo sapiens (human) ACHN cells at 700 nM after 48 hr by propidium iodide-based fluorometric assay. The class given is functional. Particulars: read-out: GI.
The test system of a further series is Calu-1. The series is described as follows: Cytotoxicity against Homo sapiens (human) Calu1 cells at 700 nM after 48 hr by propidium iodide-based fluorometric assay. The class given is functional. As to conditions: Calu-1, 48 h, read-out: GI.
Series [1] in a line: Cytotoxicity against Homo sapiens (human) H460 cells at 700 nM after 48 hr by propidium iodide-based fluorometric assay. The class given is functional. Particulars: NCI-H460, 48 h, read-out: GI.
The subject of the next series is PANC-1. The series is described as follows: Cytotoxicity against Homo sapiens (human) PANC1 cells at 700 nM after 48 hr by propidium iodide-based fluorometric assay. Particulars: PANC-1, 48 h, read-out: GI. The class given is functional.
A short description of series [2]: Cytotoxicity against Homo sapiens (human) […] cells at 1 uM. The class given is cell-based.
For series [3], the system named is THP-1. The series is described as follows: Anti-inflammatory activity in Homo sapiens (human) THP1 cells assessed as inhibition of LPS-induced IL6 production at 1 uM incubated for 30 min prior to LPS-challenge measured after 24 hr by ELISA. The class given is functional. On the technique in general: In an ELISA, binding on a coated surface is turned into a signal by an enzyme label.

Series [4] relates to THP-1. The series is described as follows: Anti-inflammatory activity in Homo sapiens (human) THP1 cells assessed as inhibition of LPS-induced TNFalpha production at 1 uM incubated for 30 min prior to LPS-challenge measured after 24 hr by ELISA. The class given is functional.

As for `CN1CC[C@H](c2c(O)cc(O)c3c(=O)cc(-c4ccccc4Cl)oc23)[C@H](O)C1` [ALVOCIDIB], the inhibition of growth at 0.7 µM turned out to be 83% in the series on HCT-116; 73% with ACHN; 82% with Calu-1; 73% in series [1]; 68% in the series with PANC-1.
`C[C@@H]1C[C@H]2[C@@H]3CCC4=CC(=O)C=C[C@]4(C)[C@@]3(F)[C@@H](O)C[C@]2(C)[C@@]1(O)C(=O)CO` [DEXAMETHASONE] showed an Activity in series [2] of 0%. The inhibition at 1 µM in the series with THP-1 [3] was 94%; in the series with THP-1 [4] it was 72%.
